# Results: BindingDB's records for doi:10.1016/S0960-894X(01)80909-4 (1993)
# Columns and labels:
# [1] = molecular target: Diamine oxidase (Sus scrofa); assay: Tested for ability to competitively inhibit hog kidney diamine oxidase (DAO) in a spectrometric assay
# [2] = molecular target: Diamine oxidase (Sus scrofa); assay: as above; remark: listed apart in the source
Ki [1],Ki [2],SMILES
7100 nM,,C=C(CN)c1cnc[nH]1 [2-(1H-Imidazol-4-yl)-allylamine]
170 nM,200 nM,NCC=Cc1cnc[nH]1
1700 nM,,NCC#Cc1cnc[nH]1 [3-(1H-Imidazol-4-yl)-prop-2-ynylamine]
